The target in the test is GDP-bound KRAS protein (aa 1-169), containing both G12C and C118A amino acid substitutions (Homo sapiens (Human), UniProt P01116, C118A/G12C). The test can be described thus: Coupled nucleotide exchange assay (SOS-mediated nucleotide exchange, AlphaScreen). The test is classed as biochemical. The conditions noted are these: 5 min compound pre-incubation; for IC50: read-out: Coupled exchange IC50 (5 min; μM). (Alpha assays give light when donor and acceptor beads are brought close together.)
Chain of GDP-bound KRAS protein (aa 1-169), containing both G12C and C118A amino acid substitutions (P01116 other isoform, or with tags, fused parts or gaps G12C/C118A): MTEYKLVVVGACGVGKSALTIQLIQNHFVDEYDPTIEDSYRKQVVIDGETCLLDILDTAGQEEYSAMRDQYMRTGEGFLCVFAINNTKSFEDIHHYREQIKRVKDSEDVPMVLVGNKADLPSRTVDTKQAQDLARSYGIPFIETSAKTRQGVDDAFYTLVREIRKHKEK

The term IC50 denotes the point on the concentration scale where inhibition reaches its midpoint.

For `C=CC(=O)N1C[C@H](C)N(c2nc(=O)n(-c3c(C(C)C)ncnc3C(C)C)c3nc(-c4ccccc4C#N)c(Cl)cc23)C[C@H]1C` [Example 100-3, 2-[6-Chloro-1-(4,6-diisopropylpyrimidin-5-yl)-4-[(2S,5R)-2,5-dimethyl-4-prop-2-enoyl-piperazin-1-yl]-2-oxo-pyrido[2,3-d]pyrimidin-7-yl]benzonitrile], the IC50 turned out to be 0.763 µM. On the same count and under the same terms, next, `C=CC(=O)N1CCN(c2nc(=O)n(CC(C)(C)C)c3nc(Cl)c(Cl)cc23)CC1` [Example 100-5, 6,7-Dichloro-1-(2,2-dimethylpropyl)-4-(4-prop-2-enoylpiperazin-1-yl)pyrido[2,3-d]pyrimidin-2-one]: 58.3 µM; `C=CC(=O)N1CCN(c2nc(=O)n(CC(C)(C)C)c3ncccc23)CC1` [Example 100-6, 1-(2,2-dimethylpropyl)-4-(4-prop-2-enoylpiperazin-1-yl)pyrido[2,3-d]pyrimidin-2-one]: 250 µM. The same measure, in the same setting: next, `C=CC(=O)N1C[C@H](C)N(c2nc(=O)n(-c3c(C(C)C)ncnc3C(C)C)c3nc(-c4ccccc4S(C)(=O)=O)c(Cl)cc23)C[C@H]1C` [Example 100-7, 6-Chloro-1-(4,6-diisopropylpyrimidin-5-yl)-4-[(2S,5R)-2,5-dimethyl-4-prop-2-enoyl-piperazin-1-yl]-7-(2-methylsulfonylphenyl) pyrido[2,3-d]pyrimidin-2-one]: 5.1 µM. For the molecule `CC(C)c1ncnc(C(C)C)c1-n1c(=O)nc(N2CCN(C(=O)/C=C/CN(C)C)C[C@@H]2C)c2cc(Cl)c(-c3ccccc3F)nc21` [Example 102-2, 6-Chloro-1-(4,6-diisopropylpyri-midin-5-yl)-4-[(2S)-4-[(E)-4-(dimethylamino)but-2-enoyl]-2-methyl-piperazin-1-yl]-7-(2-fluorophenyl) pyrido[2,3-d]pyrimidin-2-one], the IC50 was determined as 1.23 µM. Turning to `C=CC(=O)N1C[C@H](C)N(c2nc(=O)n(-c3c(C)cc(P(C)(C)=O)cc3C(C)C)c3nc(-c4ccccc4F)c(Cl)cc23)C[C@H]1C` [Example 102-7, 6-Chloro-1-(4-dimethylphosphoryl-2-isopropyl-6-methyl-phenyl)-4-[(2S,5R)-2,5-dimethyl-4-prop-2-enoyl-piperazin-1-yl]-7-(2-fluorophenyl) pyrido[2,3-d]pyrimidin-2-one], the IC50 amounted to 0.376 µM.

`C=CC(=O)N1C[C@H](C)N(c2nc(=O)n(-c3c(C(C)C)ccnc3C(=O)N(C)C)c3nc(-c4ccccc4F)c(Cl)cc23)C[C@H]1C` [Example 102-8, 3-[6-Chloro-4-[(2S,5R)-2,5-dimethyl-4-prop-2-enoyl-piperazin-1-yl]-7-(2-fluorophenyl)-2-oxo-pyrido[2,3-d]pyrimidin-1-yl]-4-isopropyl-N,N-dimethyl-pyridine-2-carboxamide]: the IC50 amounted to 184 µM. Regarding `C=CC(=O)N1C[C@H](C)N(c2nc(=O)n(-c3c(C)ccnc3C(C)C)c3nc(-c4ccccc4F)c(Cl)nc23)C[C@H]1C` [Example 106-6, 6-Chloro-4-[(2S,5R)-2,5-dimethyl-4-prop-2-enoyl-piperazin-1-yl]-7-(2-fluorophenyl)-1-(2-isopropyl-4-methyl-3-pyridyl)pteridin-2-one], the half-maximal inhibitory concentration (IC50) came to 0.322 µM. As to `C=CC(=O)N1C[C@@H](C)N(c2nc(=O)n(-c3c(C)ccnc3C(C)C)c3nc(-c4ccccc4F)c(Cl)nc23)[C@@H](C)C1` [Example 106-7, 6-Chloro-4-[(2R,6S)-2,6-dimethyl-4-prop-2-enoyl-piperazin-1-yl]-7-(2-fluorophenyl)-1-(2-isopropyl-4-methyl-3-pyridyl)pteridin-2-one], the IC50 was found to be 0.301 µM. For `C=CC(=O)N1C[C@@H](C)N(c2nc(=O)n(-c3c(C)ccnc3C(C)C)c3nc(-c4ccccc4F)c(Cl)nc23)[C@@H](C)C1` [Example 106-7-1, 6-Chloro-4-[(2R,6S)-2,6-dimethyl-4-prop-2-enoyl-piperazin-1-yl]-7-(2-fluorophenyl)-1-(2-isopropyl-4-methyl-3-pyridyl)pteridin-2-one], the concentration for half-maximal inhibition (IC50) came out at 1.98 µM. The same measure, in the same setting: the figure for `C=CC(=O)N1CCN(c2nc(=O)n(CC(C)(C)C#N)c3nc(-c4ccccc4F)c(Cl)cc23)CC1` [Example 106-10, 3-[6-Chloro-7-(2-fluorophenyl)-2-oxo-4-(4-prop-2-enoylpiperazin-1-yl)pyrido[2,3-d]pyrimidin-1-yl]-2,2-dimethyl-propanenitrile] is 12.1 µM; for `CC#CC(=O)N1C[C@H](C)N(c2nc(=O)n(-c3c(C)ccnc3C(C)C)c3nc(-c4ccccc4F)c(F)cc23)C[C@H]1C` [Example 119-1, 4-((2S,5R)-4(But-2-ynoyl)-2,5-dimethylpiperazin-1-yl)-6-fluoro-7-(2-fluorophenyl)-1-(2-isopropyl-4-methylpyridin-3-yl)pyrido[2,3-d]pyrimidin-2(1H)-one] it is 24 µM; for `Cc1ccnc(C(C)C)c1-n1c(=O)nc(N2C[C@@H](C)N(C(=O)C#CCN(C)C)C[C@@H]2C)c2cc(F)c(-c3ccccc3F)nc21` [Example 119-2, 4-((2S,5R)-4-(4-(Dimethylamino)but-2-ynoyl)-2,5-dimethylpiperazin-1-yl)-6-fluoro-7-(2-fluorophenyl)-1-(2-isopropyl-4-methylpyridin-3-yl)pyrido[2,3-d]pyrimidin-2(1H)-one] it is 0.33 µM. `C=CC(=O)N1C[C@H](C)N(c2nc(=O)n(-c3c(N(C)C)ccnc3C(C)C)c3nc(-c4c(F)cccc4NC(=O)C4CC4)c(Cl)cc23)C[C@H]1C` [Example 122-3, N-[2-[6-Chloro-1-[4-(dimethylamino)-2-isopropyl-3-pyridyl]-4-[(2S,5R)-2,5-dimethyl-4-prop-2-enoyl-piperazin-1-yl]-2-oxo-pyrido[2,3-d]pyrimidin-7-yl]-3-fluoro-phenyl]cyclopropanecarboxamide]: the IC50 was determined as 0.503 µM. Still for that read-out and setting: the figure for `C=CC(=O)N1C[C@H](C)N(c2nc(=O)n(-c3c(C(C)C)ccnc3C(C)C)c3nc(-c4ccccc4C)c(F)cc23)C[C@H]1C` [Example 124-5, 1-(2,4-Diisopropyl-3-pyridyl)-4-[(2S,5R)-2,5-dimethyl-4-prop-2-enoyl-piperazin-1-yl]-6-fluoro-7-(o-tolyl)pyrido[2,3-d]pyrimidin-2-one] is 0.439 µM; for `C=CC(=O)N1C[C@H](C)N(c2nc(=O)n(-c3c(CN(CC)C(C)C)ccnc3C(C)C)c3nc(-c4ccccc4C(C)C)c(Cl)cc23)C[C@H]1C` [Example 141-2, 6-Chloro-4-[(2S,5R)-2,5-dimethyl-4-prop-2-enoyl-piperazin-1-yl]-1-[4-[[ethyl(isopropyl)amino]methyl]-2-isopropyl-3-pyridyl]-7-(2-isopropylphenyl)pyrido[2,3-d]pyrimidin-2-one] it is 0.279 µM.

With `C=CC(=O)N1C[C@H](C)N(c2nc(=O)n3c4nc(c(Cl)cc24)-c2ccccc2C/C=C\Cc2cccc(C(C)C)c2-3)C[C@H]1C` [Example 146-1, (F)-(9Z)-19-Chloro-22-((2S,5R)-2,5-dimethyl-4-(2-propenoyl)-1-piperazinyl)-3-(2-propanyl)-1,23,26-triazapentacyclo[16.6.2.0˜2,7˜.0˜12,17˜0˜21,25-]hexacosa-2,4,6,9,12,14,16,18,20,22,25-undecaen-24-one and (F)-19-chloro-22-((2S,5R)-2,5-dimethyl-4-(2-propenoyl)-1-piperazinyl)-3-(2-propanyl)-1,23,26-triazapentacyclo[6.6.2.0˜2,7˜.0˜12,17˜.0˜21,25˜]hexacosa-2,4,6,9,12,14,16,18,20,22,25-undecaen-24-one], the IC50 was 12.8 µM. Same read-out and setting: next, `C=CC(=O)N1C[C@H](C)N(c2nc(=N)n(CC(C)(C)C)c3nc(-c4ccccc4F)c(Cl)cc23)C[C@H]1C` [Example 150, 1-((2R,5S)-4-(6-Chloro-7-(2-fluorophenyl)-2-imino-1-neopentyl-1,2-dihydropyrido[2,3-d]pyrimidin-4-yl)-2,5-dimethylpiperazin-1-yl)prop-2-en-1-one]: 0.313 µM; `C=CC(=O)N1C[C@H](C)N(c2n/c(=N\C)n(CC(C)(C)C)c3nc(-c4ccccc4F)c(Cl)cc23)C[C@H]1C` [Example 151, 1-((2R,5S)-4-((Z)-6-Chloro-7-(2-fluorophenyl)-2-(methylimino)-1-neopentyl-1,2-dihydropyrido[2,3-d]pyrimidin-4-yl)-2,5-dimethylpiperazin-1-yl)prop-2-en-1-one 2,2,2-trifluoroacetate]: 0.348 µM; `C=CC(=O)N1C[C@H](C)N(c2nc(=O)n(-c3ccccc3C(C)C)c3c2CCN(c2ccccc2)C3)C[C@H]1C` [Example 152, 4-((2S,5R)-4-Acryloyl-2,5-dimethylpiperazin-1-yl)-1-(2-isopropylphenyl)-7-phenyl-5,6,7,8-tetrahydropyrido[3,4-d]pyrimidin-2(1H)-one]: 132 µM.

Regarding `C=CC(=O)N1C[C@H](C)N(c2nc(=O)n(-c3c(C(C)C)nc(CC)nc3C(C)C)c3nc(-c4ccccc4F)c(Cl)cc23)C[C@H]1C` [Example 169, 6-Chloro-4-[(2S,5R)-2,5-dimethyl-4-prop-2-enoyl-piperazin-1-yl]-1-(2-ethyl-4,6-diisopropyl-pyrimidin-5-yl)-7-(2-fluorophenyl)pyrido[2,3-d]pyrimidin-2-one], the IC50 was found to be 0.55 µM. The same measure, in the same setting: next, `C=CC(=O)N1C[C@H](C)N(c2nc(=O)n(-c3c(C(C)C)nc(-c4ccoc4)nc3C(C)C)c3nc(-c4ccccc4F)c(Cl)cc23)C[C@H]1C` [Example 171, 6-Chloro-4-[(2S,5R)-2,5-dimethyl-4-prop-2-enoyl-piperazin-1-yl]-7-(2-fluorophenyl)-1-[2-(3-furyl)-4,6-diisopropyl-pyrimidin-5-yl]pyrido[2,3-d]pyrimidin-2-one]: 0.206 µM.

As to `C=CC(=O)N1C[C@H](C)N(c2nc(=O)n(-c3c(C(C)C)cc(N4CCC4)nc3C(C)C)c3nc(-c4ccccc4F)c(Cl)cc23)C[C@H]1C` [Example 182, 4-((2S,5R)-4-Acryloyl-2,5-dimethylpiperazin-1-yl)-1-(6-(azetidin-1-yl)-2,4-diisopropylpyridin-3-yl)-6-chloro-7-(2-fluorophenyl)pyrido[2,3-d]pyrimidin-2(1H)-one], the “Coupled exchange IC50 (5 min; μM)” value was found to be 8.794 µM.

For the origin of these results see US11285156B2, “Substituted piperazines as KRAS G12C inhibitors” (Amgen Inc., priority 2018, dated 2022).
